{"source": "ChEMBL document CHEMBL3853306", "about": "“Antidepressant-like effects and mechanisms of flavonoids and related analogues” (Eur J Med Chem, 2016)", "key": {"[1]": {"assay": "Inhibition of MAO in mouse brain mitochondrial fraction using kynuramine as substrate assessed as formation of 4-hydroxyquinoline by fluorescence spectrometric method", "type": "tissue-based"}, "[2]": {"assay": "Antidepressant activity in albino mouse assessed as immobility time at 10 mg/kg, ip administered 30 mins prior to testing by forced swimming test (reference value: 141 +/- 14.2 secs)", "type": "functional, organism-based"}, "[3]": {"assay": "Antidepressant activity in albino mouse assessed as decrease in immobility time at 10 mg/kg, ip administered 30 mins prior to testing by forced swimming test relative to control", "type": "functional, organism-based", "design": "scale not given: the % may be the effect or the level left"}, "[4]": {"assay": "Antidepressant- like activity in Balb/c mouse assessed as immobility time at 10 mg/kg, ip administered 30 mins prior to testing by forced swimming test (reference value: 123.3 +/- 10.7 secs)", "type": "functional, organism-based"}, "[5]": {"assay": "Antidepressant- like activity in Balb/c mouse assessed as immobility time at 5 mg/kg, ip administered 30 mins prior to testing by tail suspension test (reference value: 130.5 +/- 9.6 secs)", "type": "functional, organism-based"}, "[6]": {"assay": "Antidepressant- like activity in Balb/c mouse assessed as immobility time at 10 mg/kg, ip administered 30 mins prior to testing by tail suspension test (reference value: 130.5 +/- 9.6 secs)", "type": "functional, organism-based"}, "[7]": {"assay": "Antidepressant- like activity in Balb/c mouse assessed as immobility time at 1 mg/kg, ip administered 30 mins prior to testing by tail suspension test (reference value: 130.5 +/- 9.6 secs)", "type": "functional, organism-based"}, "[8]": {"assay": "Antidepressant- like activity in Balb/c mouse assessed as immobility time at 5 mg/kg, ip administered 30 mins prior to testing by forced swimming test (reference value: 123.3 +/- 10.7 secs)", "type": "functional, organism-based"}, "[9]": {"assay": "Antidepressant- like activity in Balb/c mouse assessed as immobility time at 1 mg/kg, ip administered 30 mins prior to testing by forced swimming test (reference value: 123.3 +/- 10.7 secs)", "type": "functional, organism-based"}, "[10]": {"assay": "Antidepressant- like activity in mouse assessed as duration of immobility time at 10 mg/kg, ip by forced swimming test (reference value: 141.5 +/- 10.9 secs)", "type": "functional, organism-based"}, "[11]": {"assay": "Antidepressant- like activity in mouse assessed as duration of immobility time at 10 mg/kg, ip by tail suspension test (reference value: 130.5 +/- 9.6 secs)", "type": "functional, organism-based"}, "[12]": {"assay": "Antidepressant- like activity in mouse assessed as decrease in immobility time at 30 mg/kg, po by forced swimming test relative to control", "type": "functional, organism-based", "design": "scale not given: the % may be the effect or the level left"}, "[13]": {"assay": "Antidepressant- like activity in mouse assessed as decrease in immobility time at 30 mg/kg, po by tail suspension test relative to control", "type": "functional, organism-based", "design": "scale not given: the % may be the effect or the level left"}, "Mus musculus": {"system": "Mus musculus", "assay": "In vivo inhibition of MAOA in ICR mouse brain at 20 mg/kg administered via oral gavage using kynuramine dihydrobromide as substrate preincubated for 15 mins followed by substrate addition measured after 30 mins in presence of MAOB inhibitor deprenyl by fluorescence spectrometric method", "type": "functional"}}, "data": [{"molecule": "O=c1cc(-c2ccc(O)c(O)c2)oc2cc(O[C@@H]3O[C@H](CO)[C@@H](O)[C@H](O)[C@H]3O)cc(O)c12", "note": "[GALUTEOLIN]", "values": [{"measurement": "IC50", "setting": "[1]", "value": 118.6, "unit": "µg/mL"}]}, {"molecule": "COc1cc(C2CC(=O)c3ccc(O)cc3O2)ccc1O", "note": "(centres undefined)", "values": [{"measurement": "TIME", "setting": "[2]", "value": 0.0256, "unit": "h"}, {"measurement": "Activity", "setting": "[3]", "value": 34.6, "unit": "%"}]}, {"molecule": "O=C1CC(c2ccc(Cl)cc2Cl)Oc2cc(O)ccc21", "note": "(centres undefined)", "values": [{"measurement": "Activity", "setting": "[3]", "value": 30.4, "unit": "%"}]}, {"molecule": "CC(C)=CCOc1ccc(C(=O)/C=C/c2ccc3ccccc3c2)c(O)c1", "values": [{"measurement": "TIME", "setting": "[4]", "value": 0.0257, "unit": "h"}, {"measurement": "TIME", "setting": "[5]", "value": 0.0217, "unit": "h"}, {"measurement": "TIME", "setting": "[6]", "value": 0.0241, "unit": "h"}, {"measurement": "TIME", "setting": "[7]", "value": 0.0295, "unit": "h"}, {"measurement": "TIME", "setting": "[8]", "value": 0.022, "unit": "h"}, {"measurement": "TIME", "setting": "[9]", "value": 0.0254, "unit": "h"}]}, {"molecule": "CNCCC(Oc1ccc(C(F)(F)F)cc1)c1ccccc1", "note": "(centres undefined)", "values": [{"measurement": "TIME", "setting": "[4]", "value": 0.0229, "unit": "h"}, {"measurement": "TIME", "setting": "[6]", "value": 0.021, "unit": "h"}, {"measurement": "TIME", "setting": "[2]", "value": 0.0195, "unit": "h"}, {"measurement": "TIME", "setting": "[10]", "value": 0.0174, "unit": "h"}, {"measurement": "TIME", "setting": "[11]", "value": 0.0112, "unit": "h"}]}, {"molecule": "O=C(O)[C@H]1O[C@@H](Oc2cc(O)c3c(=O)cc(-c4ccc(O)cc4)oc3c2)[C@H](O)[C@@H](O)[C@@H]1O", "values": [{"measurement": "IC50", "setting": "[1]", "value": 81.7, "unit": "µg/mL"}]}, {"molecule": "CC(C)=CCOc1ccc(C(=O)/C=C/c2cccc(Br)c2)c(O)c1", "values": [{"measurement": "Activity", "setting": "[12]", "value": 74.1, "unit": "%"}, {"measurement": "TIME", "setting": "[10]", "value": 0.0102, "unit": "h"}, {"measurement": "Activity", "setting": "[13]", "value": 67.6, "unit": "%"}, {"measurement": "TIME", "setting": "[11]", "value": 0.0118, "unit": "h"}]}, {"molecule": "COc1ccc(/C=C/C(=O)c2ccc(OCC=C(C)C)cc2O)cc1", "values": [{"measurement": "Activity", "setting": "[12]", "value": 71.4, "unit": "%"}, {"measurement": "TIME", "setting": "[10]", "value": 0.0112, "unit": "h"}, {"measurement": "Activity", "setting": "[13]", "value": 61, "unit": "%"}, {"measurement": "TIME", "setting": "[11]", "value": 0.0141, "unit": "h"}]}, {"molecule": "O=C1c2c(O)cc(O)cc2O[C@H](c2ccc(O)cc2)[C@H]1O", "note": "[DIHYDROKAEMPFEROL]", "values": [{"measurement": "IC50", "setting": "[1]", "value": 154.7, "unit": "µg/mL"}]}, {"molecule": "O=c1c(O)c(-c2ccc(O)c(O)c2)oc2cc(O)ccc12", "note": "[FISETIN]", "values": [{"measurement": "inhibition in vivo at 20 mg/kg", "setting": "Mus musculus", "value": 14.7, "unit": "%"}]}, {"molecule": "O=C1c2c(O)cc(O)cc2O[C@H](c2ccc(O)c(O)c2)[C@H]1O", "note": "[(+)-TAXIFOLIN]", "values": [{"measurement": "IC50", "setting": "[1]", "value": 153.1, "unit": "µg/mL"}]}, {"molecule": "CC(C)=CCOc1ccc(C(=O)/C=C/c2c(Cl)cccc2Cl)c(O)c1", "values": [{"measurement": "TIME", "setting": "[10]", "value": 0.0116, "unit": "h"}, {"measurement": "TIME", "setting": "[11]", "value": 0.0135, "unit": "h"}]}]}
